Reference: patent US8431523B2, “Oligomeric biosurfactants in dermatocosmetic compositions” (priority 2006, dated 2013)
Non-standard residues stand in square brackets, D forms with d. Residues, ends and D or L forms follow the SMILES beside them. *: point of attachment. Palmitoyl = CCCCCCCCCCCCCCCC(=O)*; Myristoyl = CCCCCCCCCCCCCC(=O)*

Columns and labels:
[1] = system: E. coli, P. aeruginosa, P. cepacia, S. aureus, including MRSA, S. epidermidis, and C. albicans; type: cell-based
Text: By “antimicrobial” activity is meant the ability to inhibit the growth of at least one microbial organism selected from the group consisting E. coli, P. aeruginosa, S. aureus and C. albicans, as confirmed by optical density measurement (“OD”).
By “inhibition of growth” is meant reduction or absence of an increase greater than 5% in OD, a dimensionless measure of turbidity that is proportional to the amount of microbial cells present in a sample. For illustrative purposes, a OAB according to the present invention is added to a culture plate on which E. coli is present at a final concentration of about 5×10^3 cfu/ml. The plate is then incubated at about 37° C. for about 24 hours at which time the E. coli is resuspended by shaking, and OD is measured at about 600 nm. Thus, a reduction or absence of an increase greater than 5% in OD confirms the antimicrobial nature of the OAB with respect to E. coli.
Minimum inhibitory concentration (“MIC”) is a method well-known to those of skill in the art for expressing antimicrobial activity. A compound to be tested is serially diluted into growth medium, inoculated with culture and then incubated. The MIC is the lowest dilution of compound that inhibits or prevents growth of the target microorganism.
A further aspect of the present invention is directed to oligomeric acylated biosurfactants having a CMC of less than about 100 ppm in an aqueous environment of MEM Solution that reduces the surface tension of the MEM Solution to less than about […] where the OAB consists essentially of two to nine amino acid residues, at least one of which is charged, and has a MIC of less than 100 ppm for at least two of the following microorganisms: E. coli, P. aeruginosa, P. cepacia, S. aureus, including MRSA, S. epidermidis, and C. albicans. OABs meeting this criterion are selected from the group consisting of: Myr-GR-amide (P300); Myr-KK-amide (P315); Pal-HR-amide (P320); Myr-KK-acid (P347); SEQ ID NO 79 (P367); Myr-GHR-amide (P245); Pal-GHR-amide (P250); Myr-GRK-amide (P303); Pal-G-H—[R]^D-amide (P366); SEQ ID NO 84 (368); SEQ ID NO 58 (P370); SEQ ID NO 59 (P360); SEQ ID NO 60 (P373); SEQ ID NO 61 (P376); SEQ ID NO 62 (P369); SEQ ID NO 63 (P379); SEQ ID NO 64 (P381); SEQ ID NO 65 (P416); SEQ ID NO 66 (P383); and SEQ ID NO 67 (P289).

[2] = system: metabolic soluble proteins; assay: CBQCA Protein Quantitation Assay (metabolic soluble protein); type: cell-based
Experimental: A first aspect of the present invention is directed to OABs having an ability to increase metabolic soluble proteins by at least about 20%. For purposes of the present invention, metabolic soluble protein is measured using the CBQCA Protein Quantitation Assay from Molecular Probes, Inc. (Eugene, Oreg.). This assay is based on aquinoline-2-carboxaldehyde derivative, which specifically reacts with primary amines to form conjugates capable of electrophoretic or chromatographic analysis. More specifically, in the presence of the cyanide anion, the quinoline-2-carboxaldehyde derivative reacts with primary amines, including those on proteins, and produces a highly-fluorescent emission at 550 nm.

Row | Compound | MIC for at least two of the listed microorganisms [1] | further results
1 | CCCCCCCCCCCCCC(=O)NCC(=O)N[C@@H](CCCNC(=N)N)C(=O)N[C@@H](CCCCN)C(N)=O [P303, Myr-GRK-amide] (Myristoyl-Gly-Arg-Lys-NH2) | less than 100 ppm | 
2 | CCCCCCCCCCCCCC(=O)N[C@@H](CCCCN)C(=O)N[C@@H](CCCCN)C(N)=O [P315, Myr-KK-amide] | less than 100 ppm | 
3 | CCCCCCCCCCCCCCCC(=O)N[C@@H](Cc1c[nH]cn1)C(=O)N[C@@H](CCCNC(=N)N)C(N)=O [P320, Pal-HR-amide] (Palmitoyl-His-Arg-NH2) | less than 100 ppm | 
4 | CCCCCCCCCCCCCC(=O)N[C@@H](CCCCN)C(=O)N[C@@H](CCCCN)C(=O)O [P347, Myr-KK-acid] | less than 100 ppm | 
5 | CCCCCCCCCCCCCC(=O)N[C@H](CCCCN)C(=O)N[C@@H](CCCCN)C(=O)N[C@H](C)C(=O)N[C@@H](CC(C)C)C(=O)N[C@H](CCCCN)C(N)=O [P360, Myr-[K]^D-K-[A]^D-L-[K]^D-amide] (Myristoyl-[dK]K[dA]L[dK]-NH2) | less than 100 ppm | 
6 | CCCCCCCCCCCCCCCC(=O)NCC(=O)N[C@@H](Cc1c[nH]cn1)C(=O)N[C@H](CCCNC(=N)N)C(N)=O [P366, Pal-G-H-[R]^D-amide] (Palmitoyl-Gly-His-[dR]-NH2) | less than 100 ppm | 
7 | CCCCCCCCCCCCCCCC(=O)N[C@@H](CCCCN)C(=O)N[C@H](CCCCN)C(N)=O [P367, Pal-K-[K]^D-amide] | less than 100 ppm | 
8 | CCCCCCCCCCCCCC(=O)N[C@@H](CCCCN)C(=O)N[C@@H](CCCCN)C(=O)N[C@@H](C)C(=O)N[C@@H](CC(C)C)C(=O)N[C@@H](CCCCN)C(=O)N[C@@H](CCCCN)C(N)=O [P369, Myr-KKALKK-amide] (Myristoyl-KKALKK-NH2) | less than 100 ppm | 
9 | CCCCCCCCCCCCCCCC(=O)N[C@@H](CC(C)C)C(=O)N[C@@H](C)C(=O)N[C@@H](CCCCN)C(=O)N[C@@H](CCCCN)C(N)=O [P370, Pal-LAKK-amide] (Palmitoyl-LAKK-NH2) | less than 100 ppm | 
10 | CCCCCCCCCCCCCC(=O)N[C@@H](CCCCN)C(=O)N[C@@H](CCCCN)C(=O)N[C@@H](CO)C(=O)N[C@@H](CC(C)C)C(=O)N[C@@H](CCCCN)C(N)=O [P373, Myr-KKSLK-amide] (Myristoyl-KKSLK-NH2) | less than 100 ppm | 
11 | CCCCCCCCCCCCCC(=O)N[C@@H](CC(C)C)C(=O)N[C@@H](C)C(=O)N[C@H](C(=O)N[C@@H](CCCCN)C(=O)N[C@@H](CCCCN)C(N)=O)[C@@H](C)CC [P376, Myr-LAIKK-amide] (Myristoyl-LAIKK-NH2) | less than 100 ppm | 
12 | CCCCCCCCCCCCCC(=O)N[C@@H](CCCCN)C(=O)N[C@@H](CCCCN)C(=O)N[C@@H](C)C(=O)N[C@@H](CC(C)C)C(=O)N[C@@H](CCCCN)C(=O)N[C@@H](C)C(N)=O [P379, Myr-KKALKA-amide] (Myristoyl-KKALKA-NH2) | less than 100 ppm | 
13 | CCCCCCCCCCCCCC(=O)N[C@@H](CC(C)C)C(=O)N[C@@H](CCCCN)C(=O)N[C@@H](CCCCN)C(=O)N[C@@H](C)C(=O)N[C@@H](CC(C)C)C(=O)N[C@@H](CCCCN)C(N)=O [P381, Myr-LKKALK-amide] (Myristoyl-LKKALK-NH2) | less than 100 ppm | 
14 | CCCCCCCCCCCCCC(=O)N[C@@H](CO)C(=O)N[C@@H](CC(=O)O)C(=O)NCC(=O)N[C@@H](CCCNC(=N)N)C(N)=O [P383, Myr-SDGR-amide] (Myristoyl-SDGR-NH2) | less than 100 ppm | 
15 | CCCCCCCCCCCCCC(=O)N[C@@H](CCCNC(=N)N)C(N)=O [P391, Myr-R-amide] |  | increases metabolic soluble protein (qualitative) [2]: increases metabolic soluble protein
16 | CCCCCCCCCCCCCC(=O)N[C@H](C(=O)N[C@H](C(=O)N[C@H](C(=O)N[C@@H](CCCCN)C(=O)N[C@@H](CCCCN)C(=O)N[C@@H](CCCCN)C(N)=O)[C@@H](C)CC)[C@@H](C)CC)[C@@H](C)CC [P416, Myr-IIIKKK-amide] (Myristoyl-IIIKKK-NH2) | less than 100 ppm | 
17 | Myr-III-amide [P420] |  | increase metabolic soluble proteins [2]: at least 20%
18 | Myr-RH-amide [P393] |  | increases metabolic soluble protein (qualitative) [2]: increases metabolic soluble protein
19 | Pal-KK-amide [P316] |  | increases metabolic soluble protein (qualitative) [2]: increases metabolic soluble protein
20 | Pal-RR-amide [P318] |  | increases metabolic soluble protein (qualitative) [2]: increases metabolic soluble protein
